Test results as given in US7312249B2, “Vitamin D analogues” (Galderma Research & Development, priority 2002, dated 2007).

How the values were obtained:
Assay type in all cases: cell-based
human VDR receptor = target: T1, human VDR receptor (Homo sapiens, UniProt P11473); assay: VDR agonist activity, co-transfection of HeLa cells with human VDR expression vector and reporter plasmid p240Hase-CAT; details: CAT reporter (rat 24-hydroxylase promoter), 18 hours of treatment
T1 construct: expressed in transfected cells; host or cells: HeLa
T1 sequence (P11473 1-427): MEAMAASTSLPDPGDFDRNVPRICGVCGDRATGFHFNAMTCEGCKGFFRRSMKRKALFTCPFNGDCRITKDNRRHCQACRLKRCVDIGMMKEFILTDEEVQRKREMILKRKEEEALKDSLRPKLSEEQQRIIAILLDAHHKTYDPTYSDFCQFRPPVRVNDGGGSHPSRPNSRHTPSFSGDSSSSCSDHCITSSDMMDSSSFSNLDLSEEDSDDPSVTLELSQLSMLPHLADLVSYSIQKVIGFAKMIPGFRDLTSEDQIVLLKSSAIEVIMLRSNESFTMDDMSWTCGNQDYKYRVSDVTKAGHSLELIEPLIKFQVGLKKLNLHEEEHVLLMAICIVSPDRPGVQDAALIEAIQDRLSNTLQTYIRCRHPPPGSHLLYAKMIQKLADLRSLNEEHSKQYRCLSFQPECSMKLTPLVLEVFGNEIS
Experimental: By way of example, the VDR agonist activity may be tested on the HeLa cell line, by co-transfecting a human VDR receptor expression vector and the reporter plasmid p240Hase-CAT. The agonist activity may also be characterized in this co-transfection system by the determination of the dose necessary to reach 50% of the maximum activity of the product (AC50).
18 hours after co-transfection, the compound to be tested is added to the medium. After 18 hours of treatment, the assay of the CAT activity of the cellular lysates is carried out by an ELISA test (Enzyme Linked Immuno Sorbent Assay, marketed by Roche Molecular Biochemicals). The agonist activity may be characterized in this co-transfection system by determining the dose required to reach 50% of the maximum activity of the compound tested (AC50).

HL60 cells = assay: Activity on the differentiation of HL60 cells (NBT reduction); details: Homo sapiens, HL-60, 96 h, 4 days of culture, NBT-positive cells counted
Text: The biological properties analogous to vitamin D may also be measured by the capacity of the product to induce differentiation of promyelocytic leukaemia cells HL60. The protocol and the results obtained with the compounds according to the invention are described in Example 6 of the present application.
Calcitriol induces the differentiation of promyelocytic leukaemia cells (HL60) into monocytes/macrophages. This differentiation-inducing effect is a well characterized marker for cellular vitamin D. One of the most important anti-microbial products of macrophages is hydrogen peroxide, which may be analyzed experimentally by the reduction of NBT (Nitroblue Tetrazolium).
The method used is the following: the HL60 cells are inoculated into 6-well plates and then treated immediately with a test compound. After 4 days of culture, the cells are incubated with phorbol TPA ester and NBT for a short period and the differentiated cells, that is to say which are positive to NBT are counted.

[1] = tested on: normal human keratinocytes; assay: Activity on the proliferation of human keratinocytes (BrdU incorporation); details: Keratinocyte, 120 h, 5 days of culture, read-out: IC50 - proliferation of the KHNs
Experimental: The biological properties which are similar to vitamin D may also be measured by the capacity of the product to inhibit the proliferation of normal human keratinocytes (NHK in culture). The product is added to NHKs cultured under conditions promoting the proliferative state. The product is left in contact with the cells for 5 days. The number of proliferative cells is measured by incorporation of bromodeoxyuridine (BRdU) into DNA. The protocol for this test and the results obtained with the compounds according to the invention are described in Example 8 of the present application.
The method used is the following: normal human keratinocytes are inoculated at low density into a 24-well plate. After 4 hours, the compounds to be tested are added to the culture medium. After 5 days of culture, the proliferation of the kerátinocytes is determined by incorporating 5-bromo-2′-deoxyuridine (BrdU) into the DNA. The quantity of BrdU incorporated is then measured using the ELISA test (Enzyme Linked Immuno Sorbent Assay, marketed by Roche Molecular Biochemicals).

SMILES | AC50 (human VDR receptor) [nM] | AC50 (HL60 cells) [nM] | IC50 [1] [nM]
CCC(O)(CC)COc1ccc(CCCc2ccc(CO)c(CO)c2)cc1C [Compound of Example 4, (4-{3-(4-(2-Ethyl-2-hydroxy-butoxy)-3-methyl-phenyl]-propyl)-2-hydroxymethyl-phenyl)-methanol] | > 3000 | – | –
C=C1/C(=C\C=C2/CCC[C@]3(C)[C@@H]([C@H](C)CCCC(C)(C)O)CC[C@@H]23)C[C@@H](O)C[C@@H]1O [Calcitriol, 1,25-dihydroxyvitamin D3, reference compound] | – | 10.7 | –
Cc1cc(CCCc2ccc(CO)c(CO)c2)ccc1OCC(O)C(C)(C)C (stereo not drawn) [Compound of Example 2, 1-{4-[3-(3,4-Bis-hydroxymethyl-phenyl)-propyl]-2-methyl-phenoxy}-3,3-dimethyl-butan-2-ol] | 172 | 2500 | 140
CCc1cc(CCCc2ccc(CO)c(CO)c2)ccc1OCC(O)(CC)CC [Compound of Example 3, (4-{3-(3-Ethyl-4-(2-ethyl-2-hydroxy-butoxy)-phenyl]-propyl}-2-hydroxymethyl-phenyl)-methanol] | 1210 | – | –
CCc1cc(CCCc2ccc(CO)c(CO)c2)ccc1OCC(O)C(C)(C)C (stereo not drawn) [Compound of Example 1, 1-{4-[3-(3,4-Bis-hydroxymethyl-phenyl)-propyl]-2-ethyl-phenoxy}-3,3-dimethyl-butan-2-ol] | 40 | 312 | 150
